This experiment addresses T1, human SCD1 (hSCD-1) (Homo sapiens, UniProt O00767).
T1 construct: made in house; host or cells: baculovirus/Sf9
T1 sequence (O00767 1-359): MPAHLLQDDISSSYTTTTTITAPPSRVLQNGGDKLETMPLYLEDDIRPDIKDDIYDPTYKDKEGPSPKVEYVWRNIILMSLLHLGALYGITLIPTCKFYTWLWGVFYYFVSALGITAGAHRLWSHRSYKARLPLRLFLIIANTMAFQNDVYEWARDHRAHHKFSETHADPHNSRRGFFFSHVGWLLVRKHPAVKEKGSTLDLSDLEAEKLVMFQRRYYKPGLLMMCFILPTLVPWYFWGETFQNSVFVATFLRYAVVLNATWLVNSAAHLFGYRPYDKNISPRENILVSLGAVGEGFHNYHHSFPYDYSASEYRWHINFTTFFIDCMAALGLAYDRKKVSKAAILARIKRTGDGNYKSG
Briefly: SCD enzyme activity assay with reconstituted human SCD1 (hSCD-1). The class given is biochemical. The method, then: I. SCD Enzyme Activity Assay:
The potency of compounds of formula I against the stearoyl-CoA desaturase was determined by measuring the conversion of radiolabeled stearoyl-CoA to oleoyl-CoA using rat liver microsome or human SCD1 (hSCD-1) following previously published procedures with some modifications (Joshi, et al., J. Lipid Res., 18: 32-36 (1977); Talamo, et al., Anal. Biochem, 29: 300-304 (1969)). Liver microsome was prepared from male Wistar or Sprague Dawley rats on a high carbohydrate diet for 3 days (LabDiet # 5803, Purina). The livers were homogenized (1:10 w/v) in a buffer containing 250 mM sucrose, 1 mM EDTA, 5 mM DTT and 50 mM Tris-HCl (pH 7.5). After a 100,000×g centrifugation for […], the liver microsome pellet was suspended in a buffer containing 100 mM sodium phosphate, 20% glycerol, 2 mM DTT, and stored at −78° C. Human SCD1 desaturase system was reconstituted using human SCD1 from a baculovirus/Sf9 expression system, cytochrome B5 and cytochrome B5 reductase. Typically, test compound in 2 μL DMSO was incubated for 15 min at room temperature with 180 μL of the SCD enzyme in a buffer containing 100 mM Tris-HCl (pH 7.5), ATP (5 mM), Coenzyme-A (0.1 mM), Triton X-100 (0.5 mM) and NADH (2 mM). The reaction was initiated by the addition of 20 μL of [^3H]-stearoyl-CoA (final concentration=2 μM, radioactivity concentration=1 μCi/mL). After 10 min, the reaction mixture (80 μL) was mixed with a calcium chloride/charcoal aqueous suspension (100 μL, charcoal (10% w/v) plus 25 μL, CaCl2 (2N). After centrifugation to precipitate the radioactive fatty acid species, tritiated water released from 9,10-[^3H]-stearoyl-CoA by the SCD enzyme was quantified on a scintillation counter.

For the molecule `CNC(=O)c1cnc(N2CC(Oc3cc(F)ccc3Br)C2)cn1`, the IC50 was 45 nM.
In the case of `O=C(Nc1ccccc1)c1cnc(N2CC(Oc3cc(F)ccc3Br)C2)cn1` it was 29 nM; in that of `CS(=O)(=O)c1ccc(NC(=O)c2cnc(N3CC(Oc4cc(F)ccc4Br)C3)cn2)cc1`, 11 nM.
Under `O=C(Nc1ccc(-c2cc[nH]n2)cc1)c1cnc(N2CC(Oc3cc(F)ccc3Br)C2)cn1` stands 16 nM; under `COc1ccc(NC(=O)c2cnc(N3CC(Oc4cc(F)ccc4Br)C3)cn2)cc1`, 9 nM.
The molecule `O=C(Nc1ccsc1)c1cnc(N2CC(Oc3cc(F)ccc3Br)C2)cn1` came in with an IC50 of 24 nM.
Under `O=C(O)CCc1ccc(NC(=O)c2cnc(N3CC(Oc4cc(F)ccc4Br)C3)cn2)cc1` stands 45 nM.
Turning to `O=C(Nc1ccc2ccccc2c1)c1cnc(N2CC(Oc3cc(F)ccc3Br)C2)cn1`, 23 nM corresponded to half-maximal inhibition (IC50).

For the origin of these results see US20110183958A1, “AZETIDINE DERIVATIVES AS INHIBITORS OF STEAROYL-COENZYME A DELTA-9 DESATURASE” (Merck Frosst Canada Ltd., priority 2008, published 2011).
